B1: peptide 87, YVFNWY, on Toyopearl resin, free amino terminal (peptide)
peptide: YVFNWY
modifications: not checked
B2: peptide 89, GFFFWW, on Toyopearl resin, free amino terminal (peptide)
peptide: GFFFWW
modifications: not checked
B3: peptide 100, PFHPG, on Toyopearl resin, free amino terminal (peptide)
peptide: PFHPG
modifications: not checked
B4: peptide 90/98, FYVFTA, on Toyopearl resin, free amino terminal (peptide)
peptide: FYVFTA
modifications: not checked
B5: peptide 93, LEIRLA, on Toyopearl resin, free amino terminal (peptide)
peptide: LEIRLA
modifications: not checked
B6: peptide 85, WLYWIP, on Toyopearl resin, free amino terminal (peptide)
peptide: WLYWIP
modifications: not checked
B7: peptide 102, WFPHFF, on Toyopearl resin, free amino terminal (peptide)
peptide: WFPHFF
modifications: not checked
B8: peptide 91, YFIWWE, on Toyopearl resin, free amino terminal (peptide)
peptide: YFIWWE
modifications: not checked
B9: peptide 115, VFEYIK, on Toyopearl resin, free amino terminal (peptide)
peptide: VFEYIK
modifications: not checked
B10: peptide 113, RWIISL, on Toyopearl resin, free amino terminal (peptide)
peptide: RWIISL
modifications: not checked
B11: peptide 117, YWFIYI, on Toyopearl resin, free amino terminal (peptide)
peptide: YWFIYI
modifications: not checked
B12: peptide 86, WEFYWF, on Toyopearl resin, free amino terminal (peptide)
peptide: WEFYWF
modifications: not checked
B13: peptide 99, SNYGPY, on Toyopearl resin, free amino terminal (peptide)
peptide: SNYGPY
modifications: not checked
B14: peptide 96, LRVIIS, on Toyopearl resin, free amino terminal (peptide)
peptide: LRVIIS
modifications: not checked
B15: peptide 119, HKEQGA, on Toyopearl resin, free amino terminal (peptide)
peptide: HKEQGA
modifications: not checked
B16: peptide 112, IFFWIK, on Toyopearl resin, free amino terminal (peptide)
peptide: IFFWIK
modifications: not checked
B17: peptide 95, SLEEYV, on Toyopearl resin, free amino terminal (peptide)
peptide: SLEEYV
modifications: not checked
B18: peptide 88, LAWFWR, on Toyopearl resin, free amino terminal (peptide)
peptide: LAWFWR
modifications: not checked
B19: peptide 94, LLLVIA, on Toyopearl resin, free amino terminal (peptide)
peptide: LLLVIA
modifications: not checked
B20: peptide 118, TGIPII, on Toyopearl resin, free amino terminal (peptide)
peptide: TGIPII
modifications: not checked
B21: peptide 114, QWWFII, on Toyopearl resin, free amino terminal (peptide)
peptide: QWWFII
modifications: not checked
B22: peptide 92, SFPYYY, on Toyopearl resin, free amino terminal (peptide)
peptide: SFPYYY
modifications: not checked
B23: peptide 84, LLIWIP, on Toyopearl resin, free amino terminal (peptide)
peptide: LLIWIP
modifications: not checked

What follows are molecules tested against radiolabelled octapeptide repeat peptide *acetyl…amide. Conditions: not given.

Molecule	% unbound [14C] [%]
peptide 97, QLGHQW, on Toyopearl resin, free amino terminal	85
peptide 101, WIPPYN, on Toyopearl resin, free amino terminal	84
peptide 110, IQIWIF, on Toyopearl resin, free amino terminal	85
peptide 111, LWWLFV, on Toyopearl resin, free amino terminal	85
peptide 116, WLVWIA, on Toyopearl resin, free amino terminal	85

The molecules below were run against radiolabelled octapeptide repeat *acetyl[…]amide (SEQ ID NO:2) (Homo sapiens, UniProt P04156). Conditions: not given.

Molecule	binding of octapeptide to resin (in words)
GFFFWW [Peptide 89]	highest affinity binder

Same assay, conditions: pH 7.4

Molecule	% unbound [14C] [%]
FYVFTA [90/98]	82
GFFFWW [Peptide 89]	23
HKEQGA [Peptide 119]	91
IFFWIK [Peptide 112]	77
IQIWIF [Peptide 110]	85
LAWFWR [Peptide 88]	90
LEIRLA [Peptide 93]	96
LLIWIP [Peptide 84]	89
LLLVIA [Peptide 94]	83
LRVIIS [Peptide 96]	90
LWWLFV [Peptide 111]	85
PFHPG [Peptide 100]	88
QLGHQW [Peptide 97]	85
QWWFII [Peptide 114]	87
RWIISL [Peptide 113]	89
SFPYYY [Peptide 92]	90
SLEEYV [Peptide 95]	89
SNYGPY [Peptide 99]	79
TGIPII [Peptide 118]	88
VFEYIK [Peptide 115]	87
WEFYWF [Peptide 86]	76
WFPHFF [Peptide 102]	64
WIPPYN [Peptide 101]	84
WLVWIA [Peptide 116]	85
WLYWIP [Peptide 85]	90
YFIWWE [Peptide 91]	58
YVFNWY [Peptide 87]	45
YWFIYI [Peptide 117]	83

Molecular target: radiolabelled octapeptide repeat peptide *acetyl…amide
Conditions: not given
Remark: another data set of the same source

Molecule	% unbound [14C] [%]
B1	45
B2	23
B3	88
B4	82
B5	96
B6	90
B7	64
B8	58
B9	87
B10	89
B11	83
B12	76
B13	79
B14	90
B15	91
B16	77
B17	89
B18	90
B19	83
B20	88
B21	87
B22	90
B23	89
